{
  "source": "patent US6004967A",
  "about": "“Psoriasis treatment with quinazoline compounds” (priority 1997, dated 1999)",
  "key": {"[1]": {"test_system": "NIH 3T3 C7 cells engineered to express EGF-R (3T3-EGFR)", "assay": "3T3 cell growth assay, EGF-R C7 cells (3T3-EGFR)", "type": "cell-based", "conditions": "Mus musculus, NIH3T3, 96 h, read-out: 3T3-EGFR IC50", "protocol": "The efficacy of the above identified compounds in inhibiting or reducing EGF-R stimulated proliferation is measured by the 3T3 cell growth assay. The 3T3 growth assay was carried out as follows:\nEGF-RC7 (NIH 3T3 C7 cells engineered to express EGF-R) and NIH 3T3C7 cells (as the control) were used for this assay. NIH3T3C7 cells were seeded at 2500 cells/well, […] in 10% CS+2 mM Glutamine/DMEM, in a 96 well plate; EGF-RC7 cells were seeded at 6000 cells/well, 100 μl/well in 2% FBS+2 mM Glutamine/DMEM, in a 96 well plate. Cells were incubated at 37° C., 5% CO2 overnight to allow for cell attachment to the plate.\nA quinazoline compound was added to the cells at day 2. The compound was prepared in the appropriate growth medium (10% CS+2 mM glutamine in DMEM for NIH3T3C7 cells; 2% FBS+2 mM Glutamine in DMEM for EGF-RC7 cells) in a 96 well plate, and serially diluted. A total of 100 μl/well medium of the diluted compounds was added into the cells. The total volume of each well was 200 μl.\nAfter the cells were treated with the compound for 4 days, the cells were washed with PBS and fixed with 200 μl/well ice-cold […] for one hour at 0-5° C.\nRemove TCA and rinse wells 5 times with deionized water. Dry plates upside down with paper towels. Stain cells with 0.4% SRB at 100 μl/well for 10 minutes.\nPour off SRB and rinse plate 5 times with 1% acetic acid. Dry plate completely.\nSolubilize the dye with 10 mM Tris-base at 100 μl/well for 10 minutes on a shaker.\nRead the plate at dual wavelengths at 570 nm and 630 nm on Dynatech Elisa plate reader."}, "in vivo": {"assay": "in vivo", "conditions": "mouse, in vivo"}, "[2]": {"assay": "Plasma concentration after single IP dose", "type": "in vivo", "conditions": "mouse", "protocol": "**Single dose (50 mg/kg), IP, in BALB/c, nu/nu, female mice."}, "in vitro": {"assay": "in vitro", "type": "in vitro ADME, human", "protocol": ". […] . Thus, biologically relevant concentrations of the drug penetrated the skin and reached the target tissue (epidermis) within 24 hours of application.\n. The area of the cadaver skin used was 1.77 cm^2. The calculated volume using this assumption is 17.7 μL. Molar concentration was calculated from the microgram recovery in the epidermis."}, "IGF-1R": {"molecular_target": "T1, IGF-1R (Homo sapiens, UniProt P08069)", "T1 construct": "expressed in transfected cells; host or cells: NIH3T3 mouse fibroblasts, retroviral vector (3T3-IGF1R)", "T1 sequence (P08069 741-1367 limits assumed, species assumed)": "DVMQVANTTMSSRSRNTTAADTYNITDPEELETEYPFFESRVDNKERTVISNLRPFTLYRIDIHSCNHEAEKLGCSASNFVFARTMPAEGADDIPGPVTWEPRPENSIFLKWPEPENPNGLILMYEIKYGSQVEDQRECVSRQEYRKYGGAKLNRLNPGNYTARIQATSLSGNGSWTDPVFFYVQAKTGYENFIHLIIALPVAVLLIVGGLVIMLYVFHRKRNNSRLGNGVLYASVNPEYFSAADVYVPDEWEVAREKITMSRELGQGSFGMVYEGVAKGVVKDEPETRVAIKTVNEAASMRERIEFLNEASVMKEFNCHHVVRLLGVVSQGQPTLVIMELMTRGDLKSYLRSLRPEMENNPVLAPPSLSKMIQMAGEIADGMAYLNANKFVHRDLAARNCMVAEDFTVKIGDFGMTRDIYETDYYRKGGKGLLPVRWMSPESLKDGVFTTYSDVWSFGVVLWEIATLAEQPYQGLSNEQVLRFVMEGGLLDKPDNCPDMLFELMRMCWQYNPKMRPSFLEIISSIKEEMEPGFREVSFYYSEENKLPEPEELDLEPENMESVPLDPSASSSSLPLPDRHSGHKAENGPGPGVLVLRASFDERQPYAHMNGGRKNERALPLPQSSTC", "T1 sequence (P08069 31-736 partner limits assumed, species assumed)": "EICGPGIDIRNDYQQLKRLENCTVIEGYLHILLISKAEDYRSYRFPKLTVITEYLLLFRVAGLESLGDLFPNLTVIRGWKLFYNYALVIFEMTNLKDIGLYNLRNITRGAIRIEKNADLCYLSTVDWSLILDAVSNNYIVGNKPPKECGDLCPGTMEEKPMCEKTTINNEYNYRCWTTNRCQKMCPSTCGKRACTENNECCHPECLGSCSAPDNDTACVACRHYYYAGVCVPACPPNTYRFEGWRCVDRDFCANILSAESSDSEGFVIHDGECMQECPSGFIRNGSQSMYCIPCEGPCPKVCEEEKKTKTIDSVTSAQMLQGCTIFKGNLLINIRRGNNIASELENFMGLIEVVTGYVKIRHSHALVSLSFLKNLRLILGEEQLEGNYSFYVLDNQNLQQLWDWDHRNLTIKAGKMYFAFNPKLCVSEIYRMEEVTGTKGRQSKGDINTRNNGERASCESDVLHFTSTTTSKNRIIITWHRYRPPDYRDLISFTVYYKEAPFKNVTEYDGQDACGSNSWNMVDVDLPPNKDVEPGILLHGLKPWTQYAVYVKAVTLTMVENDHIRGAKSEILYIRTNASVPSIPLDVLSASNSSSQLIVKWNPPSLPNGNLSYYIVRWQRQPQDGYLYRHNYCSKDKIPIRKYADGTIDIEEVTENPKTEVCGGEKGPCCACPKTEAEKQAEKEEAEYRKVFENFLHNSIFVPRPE", "assay": "IGF-1-stimulated receptor phosphorylation ELISA, 3T3-IGF1R", "type": "cell-based", "source_text": "(§1) Cells and Cell Culture. All tumor cell lines were obtained from the American Type Culture Collection (Rockville, Md.), unless otherwise specified. NIH3T3 mouse fibroblasts overexpressing the EGF receptor, IGF-1 receptor, insulin receptor, PDGF-b receptor, or a chimera of the EGF receptor extracellular domain fused to the Her-2 cytoplasmic domain were engineered using retroviral vectors. These cells will be referred to as 3T3-EGFR, 3T3-IGF1R, 3T3-IR, 3T3-PDGF-bR, and 3T3-EGFR/Her-2, respectively. All cell culture media and supplements were purchased from Gibco Life Technologies (Grand Island, N.Y.) unless otherwise specified. […] Cell lines were maintained under standard conditions in culture media recommended by the ATCC, unless otherwise specified. 3T3-EGFR, 3T3-PDGF-bR, and 3T3-EGFR/Her-2 cells were maintained in DMEM containing 10% calf serum (CS) and 2 mM GLN. 3T3-IGF1R and 3T3-IR cells were maintained in DMEM containing 10% FBS and 2 mM GLN. Keratinocytes were obtained from small biopsy specimens of split-thicknessskin from patients with psoriasis and from healthy control donors.\n(§2) In vitro functional studies. […] Cell lines examined in receptor phosphorylation ELISA were 3T3-EGFR, 3T3-EGFR/Her-2, 3T3-PDGF-bR, 3T3-IGF1R, and 3T3-IR. For analysis of DNA replication (measured as incorporation of BrdU) and cell cycle progression, 3T3-EGFR and 3T3-PDGF-bR cell lines were used. Cell growth studies were carried out on A431 (EGF-R+), BT474 (Her-2+), and C6 (PDGF-bR+) cell lines.\nReceptor phosphorylation was measured by ELISA. EGF-R/Her-2 denotes a chimeric receptor consisting of the extracellular (ligand-binding) domain of EGFR, and the transmembrane and cytoplasmic domains of Her-2."}, "IR": {"molecular_target": "T2, IR (Homo sapiens, UniProt P06213)", "T2 construct": "expressed in transfected cells; host or cells: NIH3T3 mouse fibroblasts, retroviral vector (3T3-IR)", "T2 sequence (P06213 763-1382 limits assumed)": "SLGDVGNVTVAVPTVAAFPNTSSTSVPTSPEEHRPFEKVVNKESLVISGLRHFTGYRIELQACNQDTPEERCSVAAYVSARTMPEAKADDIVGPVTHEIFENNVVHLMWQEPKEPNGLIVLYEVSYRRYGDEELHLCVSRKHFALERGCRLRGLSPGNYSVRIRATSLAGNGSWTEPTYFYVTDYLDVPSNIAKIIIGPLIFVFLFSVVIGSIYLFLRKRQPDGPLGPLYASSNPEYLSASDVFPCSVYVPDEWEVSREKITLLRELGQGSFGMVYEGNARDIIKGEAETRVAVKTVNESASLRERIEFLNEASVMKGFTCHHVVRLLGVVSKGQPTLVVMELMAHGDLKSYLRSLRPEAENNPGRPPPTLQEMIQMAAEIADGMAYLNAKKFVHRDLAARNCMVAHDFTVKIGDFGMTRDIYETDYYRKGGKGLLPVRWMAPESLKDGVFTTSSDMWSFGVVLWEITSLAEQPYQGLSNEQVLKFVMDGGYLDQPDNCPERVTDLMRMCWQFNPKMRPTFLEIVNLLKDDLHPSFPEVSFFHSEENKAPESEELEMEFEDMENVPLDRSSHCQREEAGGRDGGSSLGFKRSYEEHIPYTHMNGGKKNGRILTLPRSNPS", "T2 sequence (P06213 28-758 partner limits assumed)": "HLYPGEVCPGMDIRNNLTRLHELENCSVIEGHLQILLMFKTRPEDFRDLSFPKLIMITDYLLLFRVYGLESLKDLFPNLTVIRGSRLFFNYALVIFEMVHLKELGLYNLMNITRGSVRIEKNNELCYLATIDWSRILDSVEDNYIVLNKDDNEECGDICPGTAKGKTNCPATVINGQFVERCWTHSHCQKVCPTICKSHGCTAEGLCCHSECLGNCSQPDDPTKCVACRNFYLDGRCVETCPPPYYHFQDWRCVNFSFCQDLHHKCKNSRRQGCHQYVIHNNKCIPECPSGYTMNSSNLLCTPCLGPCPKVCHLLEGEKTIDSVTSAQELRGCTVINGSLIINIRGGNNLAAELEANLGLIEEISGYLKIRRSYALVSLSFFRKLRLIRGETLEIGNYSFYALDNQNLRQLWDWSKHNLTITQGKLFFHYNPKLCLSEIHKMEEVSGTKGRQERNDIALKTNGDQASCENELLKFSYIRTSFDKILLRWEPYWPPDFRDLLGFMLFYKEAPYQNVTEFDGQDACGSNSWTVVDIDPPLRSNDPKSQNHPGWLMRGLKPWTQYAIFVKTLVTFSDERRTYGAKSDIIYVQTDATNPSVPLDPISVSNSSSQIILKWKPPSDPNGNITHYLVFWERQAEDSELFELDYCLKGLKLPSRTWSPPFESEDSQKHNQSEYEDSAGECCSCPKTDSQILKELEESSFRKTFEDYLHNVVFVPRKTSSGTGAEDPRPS", "assay": "Insulin-stimulated receptor phosphorylation ELISA, 3T3-IR", "type": "cell-based", "source_text": "as §1\nIn vitro functional studies. […] For analysis of DNA replication (measured as incorporation of BrdU) and cell cycle progression, 3T3-EGFR and 3T3-PDGF-bR cell lines were used. […]\nReceptor phosphorylation was measured by ELISA. […]"}, "3T3-EGFR cells": {"test_system": "3T3-EGFR cells", "assay": "EGF-driven cell cycle progression (propidium iodide, FACS)", "type": "cell-based, mouse", "conditions": "20 hours", "protocol": "as §2"}, "A431": {"test_system": "A431", "assay": "Cell growth (SRB), A431", "type": "cell-based", "protocol": "as §2\n(§3) After 4 days, cell density was measured by SRB staining. IC50 values were determined by regression analysis. For these experiments, cell lines whose growth is dependent on naturally-expressed RTK were examined."}, "BT474": {"test_system": "BT474", "assay": "Cell growth (SRB), BT474", "type": "cell-based", "conditions": "Homo sapiens, BT-474, 96 h; RTK Her-2, 4 day incubation", "protocol": "(§4) In vitro functional studies.\nas §3"}, "C6": {"test_system": "C6", "assay": "Cell growth (SRB), C6", "type": "cell-based", "protocol": "as §4, §3"}, "[3]": {"test_system": "psoriatic human keratinocytes", "assay": "Growth of psoriatic human keratinocytes", "type": "cell-based", "source_text": "as §1, §2"}, "[4]": {"assay": "Excipient screening (visual solubility after 24 hrs)"}, "[5]": {"assay": "Plasma levels of A1 after topical application in nu/nu mice"}},
  "data": [
    {"smiles": "COc1cc2ncnc(Nc3cccc(Br)c3)c2cc1OC", "note": "[A1, 4-(3-Bromophenylamino)-6,7-dimethoxyquinazoline]", "values": [
      {"measurement": "IC50", "setting": "[1]", "value": 75, "unit": "nM"},
      {"measurement": "toxicity (in words)", "setting": "in vivo", "value": "low toxicity"},
      {"measurement": "plasma half-life (in words)", "setting": "[2]; in vivo", "value": "short plasma half-life"},
      {"measurement": "concentration at 5 min", "setting": "[2]; plasma, single dose 50 mg/kg IP, BALB/c nu/nu female mice, 5 min", "value": "17900 ± 4300", "unit": "ng/mL"},
      {"measurement": "concentration at […]", "setting": "[2]; plasma, single dose 50 mg/kg IP, BALB/c nu/nu female mice, 15 min", "value": "6300 ± 3700", "unit": "ng/mL"},
      {"measurement": "concentration at 1 h", "setting": "[2]; plasma, single dose 50 mg/kg IP, BALB/c nu/nu female mice, 60 min", "value": "2000 ± 900", "unit": "ng/mL"},
      {"measurement": "skin penetration (in words)", "setting": "in vitro", "value": "penetrated human cadaver skin, reaching biologically effective concentrations in the epidermis"},
      {"measurement": "concentration at 24 h", "setting": "in vitro; human, topical or ocular, concentration in the epidermis after 24 hours", "value": "141 to 355", "unit": "µM"},
      {"measurement": "activity against insulin-like growth factor-1 receptor (in words)", "setting": "IGF-1R", "value": "little or no activity"},
      {"measurement": "inhibition of receptor phosphorylation, IGF-1R", "setting": "IGF-1R; concentrations up to 100 μM", "value": "not inhibited"},
      {"measurement": "IC50", "setting": "IGF-1R; ligand IGF-1, 2 hr pretreatment", "value": "> 100000", "unit": "nM"},
      {"measurement": "inhibition of receptor phosphorylation, IR", "setting": "IR; concentrations up to 100 μM", "value": "not inhibited"},
      {"measurement": "IC50", "setting": "IR; ligand Insulin, 2 hr pretreatment", "value": "> 100000", "unit": "nM"},
      {"measurement": "IC50", "setting": "3T3-EGFR cells", "value": 34, "unit": "nM"},
      {"measurement": "growth of cell lines driven by the EGF-R/Her family of RTK (in words)", "setting": "A431", "value": "preferentially inhibited"},
      {"measurement": "IC50", "setting": "A431; Homo sapiens, A-431, 96 h", "value": 1600, "unit": "nM"},
      {"measurement": "IC50", "setting": "BT474", "value": 900, "unit": "nM"},
      {"measurement": "inhibition of PDGF-bR-dependent cell growth (in words)", "setting": "C6", "value": "did not inhibit"},
      {"measurement": "IC50", "setting": "C6; Rattus norvegicus, C6, 96 h, RTK PDGF-bR, 4 day incubation", "value": "> 100000", "unit": "nM"},
      {"measurement": "inhibition of psoriatic skin cell / keratinocyte proliferation in vitro (in words)", "setting": "[3]", "value": "capable of inhibiting"},
      {"measurement": "IC99", "setting": "[3]; Homo sapiens, Keratinocyte, 120 h, read-out: IC99, inhibition of psoriatic keratinocyte proliferation", "value": "~14", "unit": "µM"},
      {"measurement": "IC50", "setting": "[3]; Homo sapiens, Keratinocyte, read-out: IC50, growth of psoriatic keratinocytes", "value": "< 1000", "unit": "nM"},
      {"measurement": "Solubility After 24 Hrs.", "setting": "[4]; 1.0 N HCl", "value": "Insoluble/Yellow"},
      {"measurement": "Solubility After 24 Hrs.", "setting": "[4]; Benzyl Alcohol", "value": "Soluble"},
      {"measurement": "Solubility After 24 Hrs.", "setting": "[4]; Conc. NaOH", "value": "Insoluble"},
      {"measurement": "Solubility After 24 Hrs.", "setting": "[4]; Distilled H2O", "value": "Insoluble"},
      {"measurement": "Solubility After 24 Hrs.", "setting": "[4]; EtOH/Poly-80 50:50, [Drug] 10 mg/mL", "value": "Slightly Soluble"},
      {"measurement": "Solubility After 24 Hrs.", "setting": "[4]; Ethanol", "value": "Partially Soluble"},
      {"measurement": "Solubility After 24 Hrs.", "setting": "[4]; Isopropyl Myristate", "value": "Insoluble/Cloudy"},
      {"measurement": "Solubility After 24 Hrs.", "setting": "[4]; Oleic Acid", "value": "Insoluble/Yellow/Cloudy"},
      {"measurement": "Solubility After 24 Hrs.", "setting": "[4]; PEG-300", "value": "Soluble"},
      {"measurement": "Solubility After 24 Hrs.", "setting": "[4]; Polysorbate-80, [Drug] 10 mg/mL", "value": "Slightly Soluble"},
      {"measurement": "Solubility After 24 Hrs.", "setting": "[4]; Propylene Carbonate", "value": "Soluble/80C/10 min."},
      {"measurement": "Solubility After 24 Hrs.", "setting": "[4]; Propylene Glycol", "value": "Slightly Soluble/Clear/"},
      {"measurement": "Solubility After 24 Hrs.", "setting": "[4]; Triacetin", "value": "Partially Soluble"},
      {"measurement": "concentration at 0.5 h", "setting": "[5]; mouse, plasma, topical or ocular", "value": "< 2000", "unit": "ng/mL"},
      {"measurement": "discomfort or increased grooming behavior", "setting": "[5]; topical 2% ointment, nu/nu mice", "value": "no discomfort or increased grooming behavior"}
    ]}
  ]
}
